{
  "source": "patent US6605730B2",
  "about": "“Intermediates for nematicidal pyrazoles” (priority 1998, dated 2003)",
  "key": {"[1]": {"tested_on": "southern root-knot nematodes", "experiment": "Test on root-knot nematodes (soil pot test, tomato)", "assay_type": "in vivo", "settings": "active ingredient 50 ppm in infested soil; tomato plants; after 4 weeks", "procedure": "Fine granular formulations were prepared by impregnating 99 parts of pumice with 1 part each of active compounds.\nEach of the active compounds prepared in the above-described manner was added to soil infested with southern root-knot nematodes so as to give an active ingredient concentration of 50 ppm, and intimately blended therein. This soil was charged into pots having an area of 1/5000 are, and about 20 tomato seeds (of the Kurihara variety) were sown in each pot. Tomato plants were grown in a greenhouse and, after 4 weeks, extracted so as not to injure their roots. Then, the root knot index and the controlling effect for each active compound were determined in the following manner.\n0: No knot was formed (perfectly controlled).\n1: Knots were formed to a slight degree.\n2: Knots were formed to a moderate degree.\n3: Knots were formed to a heavy degree.\n4: Knots were formed to the heaviest degree (corresponding to no treatment). [formula]\nAccording to the value of the controlling effect, the effectiveness was rated on the following basis.\na: The controlling effect was in the range of 100 to 71%.\nb: The controlling effect was in the range of 70 to 50%.\nc: The controlling effect was less than 50%.\nd: The controlling effect was 0%."}, "Meloidogyne incognita [2]": {"tested_on": "Meloidogyne incognita", "experiment": "Meloidogyne test (Test Example 5, infected soil, lettuce)", "assay_type": "in vivo", "settings": "active compound concentration 5 ppm; lettuce root galls", "procedure": "(§1) Test nematode: Meloidogyne incognita\nSolvent: 4 parts by weight of acetone\n(§2) Emulsifier: 1 part by weight of alkylaryl polyglycol ether\n(§3) To produce a suitable preparation of active compound, 1 part by weight of active compound is mixed with the stated amount of solvent and the stated amount of emulsifier is added and the concentrate is diluted with water to the desired concentration.\n(§4) The active compound preparation is intimately mixed with soil which is heavily infected with the test nematodes. The treated soil is transferred into pots, lettuce seeds are sown and the pots are kept in the greenhouse.\n(§5) After the desired time the lettuce roots are checked for infestation with nematodes (root galls) and the efficacy of the active compound in % is determined. The efficacy is 100% when infestation is avoided completely and 0% when infestation level is just as high as in the control plants in untreated but equally infested soil."}, "[3]": {"tested_on": "Nippostrongylus brasiliensis adult worms", "experiment": "Test on Nippostrongylus brasiliensis, Lane, adult (acetylcholine esterase activity of incubation medium)", "assay_type": "in vivo", "settings": "100 μg/ml", "procedure": "The method was carried out, in accordance with a method described in Parasitol. Res., vol. 73 (1987) 191, Rapson, E. B. et al. N.brasiliensis adult worms are isolated from the small intestine of female Wister rats and in sodium chloride solution ([…]) supplemented with Canesten (2 mg/l) and Sisomycin (20 mg/l). Worms (five male and five female) were incubated, according to the method of Rapson et al, and the incubation medium was adjusted so as to give final concentrations of 100 μg/ml. The resulting incubation medium was for acetylcholine esterase activity, as performed by Rapso et al. using a scale 0-3 where 0=no activity (<50% enzyme inhibition) and 1, 2 and 3 weak, good and full activity (50-75, >75 and 100% enzyme inhibition, respectively)."}, "[4]": {"tested_on": "Trichinella spiralis larvae", "experiment": "Test on Trichinella spiralis, Owen, larvae", "assay_type": "in vivo", "settings": "100 μg/ml; incubated at 19° C. for five days", "procedure": "The method was carried out, in accordance with a method described in Tropenmed. Parasitol., vol. 32 (1981), 31-34, Jenkins, D. C., and Carrington, T. S. T. spiralis larvae were isolated from skeletal muscles and diaphragms of SPF/CFW1 mice and stored in sodium chloride solution ([…]) supplemented with Canested (20 μg/ml). The larvae (20 per estimation) were incubated in 2 ml of a solution with the following composition: Casitone 20; yeast extract 10; glucose 5; potassium dihydrogen phosphate 0.8; dipotassium hydrogen phosphate 0.8 g/l in water (500 ml; pH 7.2) and supplemented with Sisomycin (10 mg/l) and Canesten (1 mg/l).\nThe test compound (10 mg) was dissolved in dimethylsulfoxide (0.5 ml) and added to the incubation medium containing the larvae to give final concentrations of 100 μg/ml. The mixture was incubated at 19° C. for five days, after which activity was assessed according to Jenkins and Carrington a scale 1-3 where 1=weak activity (fewer live larvae than in the untreated control); 2=good activity (>=50% more dead larvae than in the untreated control) and 3=full activity (all larvae dead)."}, "Meloidogyne incognita [5]": {"tested_on": "Meloidogyne incognita", "experiment": "Meloidogyne test (Test Example 6, infected soil, lettuce)", "assay_type": "in vivo", "settings": "active compound concentration 20 ppm, lettuce root galls", "procedure": "as §1\nSolvent: 31 parts by weight of acetone\nas §2, §3, §4, §5"}},
  "data": [
    {"molecule": "Clc1ccc(-c2cc(-c3cccs3)[nH]n2)cc1", "note": "[Compound 7, 3-(4-chlorophenyl)-5-(2-thienyl)-1H-pyrazole]", "values": [
      {"measurement": "melting point", "value": 217, "unit": "°C"},
      {"measurement": "Evaluation (controlling effect from root knot index)", "setting": "[1]", "value": "a (The controlling effect was in the range of 100 to 71%.)"}
    ]},
    {"molecule": "1-acetyl-3-(4-chlorophenyl)-5-(2-thienyl)-1H-pyrazole and 1-acetyl-3-(2-thienyl)-5-(4-chlorophenyl)-1H-pyrazole [Compound 58]", "values": [
      {"measurement": "Evaluation (controlling effect from root knot index)", "setting": "[1]", "value": "a (The controlling effect was in the range of 100 to 71%.)"}
    ]},
    {"molecule": "CCc1ccc(-c2cc(-c3cccs3)[nH]n2)cc1", "note": "[Compound 11]", "values": [
      {"measurement": "Evaluation (controlling effect from root knot index)", "setting": "[1]", "value": "a (The controlling effect was in the range of 100 to 71%.)"}
    ]},
    {"molecule": "C=C(C)C(=O)n1nc(-c2ccc(Cl)cc2)cc1-c1cccs1", "values": [
      {"measurement": "kill (%)", "setting": "Meloidogyne incognita [2]", "value": 100, "unit": "%"}
    ]},
    {"molecule": "c1ccc(-c2cc(-c3cccs3)n[nH]2)cc1", "note": "[compound 1, 3-(2-Thienyl)-5-phenyl-1H-pyrazole, reference compound]", "values": [
      {"measurement": "Evaluation (controlling effect from root knot index)", "setting": "[1]", "value": "c (The controlling effect was less than 50%.)"}
    ]},
    {"molecule": "COc1ccc(-c2cc(-c3cccs3)n[nH]2)cc1", "note": "[compound 2, 3-(2-Thienyl)-5-(4-methoxyphenyl)-1H-pyrazole, reference compound]", "values": [
      {"measurement": "Evaluation (controlling effect from root knot index)", "setting": "[1]", "value": "d (The controlling effect was 0%.)"}
    ]},
    {"molecule": "CCCc1c(-c2ccc(Cl)cc2)n[nH]c1-c1cccs1", "values": [
      {"measurement": "melting point", "value": "129 to 132", "unit": "°C"}
    ]},
    {"molecule": "Ic1ccc(-c2cc(-c3cccs3)[nH]n2)cc1", "note": "[Compound 9]", "values": [
      {"measurement": "Evalution (acetylcholine esterase inhibition, scale 0-3)", "setting": "[3]", "value": "3 (1, 2 and 3 weak, good and full activity (50-75, >75 and 100% enzyme inhibition, respectively))"},
      {"measurement": "Evaluation (controlling effect from root knot index)", "setting": "[1]", "value": "a (The controlling effect was in the range of 100 to 71%.)"}
    ]},
    {"molecule": "CC(C)(C)c1ccc(-c2cc(-c3cccs3)[nH]n2)cc1", "values": [
      {"measurement": "melting point", "value": "61 to 65", "unit": "°C"}
    ]},
    {"molecule": "Fc1ccc(-c2cc(-c3cccs3)[nH]n2)cc1", "note": "[Compound 6, 3-(4-fluorophenyl)-5-(2-thienyl)-1H-pyrazole]", "values": [
      {"measurement": "Evolution (activity, scale 1-3)", "setting": "[4]", "value": "2 (2=good activity (>=50% more dead larvae than in the untreated control))"},
      {"measurement": "Evalution (acetylcholine esterase inhibition, scale 0-3)", "setting": "[3]", "value": "3 (1, 2 and 3 weak, good and full activity (50-75, >75 and 100% enzyme inhibition, respectively))"},
      {"measurement": "Evaluation (controlling effect from root knot index)", "setting": "[1]", "value": "a (The controlling effect was in the range of 100 to 71%.)"}
    ]},
    {"molecule": "Fc1cccc(F)c1-c1cc(-c2cccs2)[nH]n1", "values": [
      {"measurement": "kill in % after 14 d", "setting": "Meloidogyne incognita [5]", "value": 100, "unit": "%"}
    ]},
    {"molecule": "CCc1c(-c2ccc(Cl)cc2)n[nH]c1-c1cccs1", "note": "[Compound 46]", "values": [
      {"measurement": "Evolution (activity, scale 1-3)", "setting": "[4]", "value": "2 (2=good activity (>=50% more dead larvae than in the untreated control))"},
      {"measurement": "Evalution (acetylcholine esterase inhibition, scale 0-3)", "setting": "[3]", "value": "3 (1, 2 and 3 weak, good and full activity (50-75, >75 and 100% enzyme inhibition, respectively))"}
    ]},
    {"molecule": "FC(F)(F)Oc1ccc(-c2cc(-c3cccs3)[nH]n2)cc1", "note": "[Compound 26]", "values": [
      {"measurement": "Evaluation (controlling effect from root knot index)", "setting": "[1]", "value": "a (The controlling effect was in the range of 100 to 71%.)"}
    ]},
    {"molecule": "CSCc1c(-c2ccc(Cl)cc2)n[nH]c1-c1cccs1", "note": "[Compound 49, 3-(4-Chlorophenyl)-4-methylmercaptomethyl-5-(2-thienyl)-1H-pyrazole]", "values": [
      {"measurement": "Evolution (activity, scale 1-3)", "setting": "[4]", "value": "2 (2=good activity (>=50% more dead larvae than in the untreated control))"},
      {"measurement": "Evalution (acetylcholine esterase inhibition, scale 0-3)", "setting": "[3]", "value": "3 (1, 2 and 3 weak, good and full activity (50-75, >75 and 100% enzyme inhibition, respectively))"}
    ]}
  ]
}
